# Patent publication US9289430B2, “Compounds and methods for inhibiting phosphate transport” (Ardelyx, Inc., priority 2010, dated 2016)
# Key:
# [1] = Determination of compound Cmax and AUC after oral gavage; format: in vivo, Sprague-Dawley rats; conditions: Sprague-Dawley, rat plasma, nominal 10 mg/kg (actual 7.6-11 mg/kg), sampling 0.5-4 h
# Protocol: Sprague-Dawley rats were orally gavaged with test article at a nominal dose of 2.5 or 10 mg/kg and blood was collected at 0.5, 1, 2 and 4 h. Blood samples were processed to plasma using K2EDTA as an anticoagulant. Plasma samples were treated with acetonitrile containing an internal standard, precipitated proteins removed by centrifugation. Supernatants were analyzed by LC-MS/MS and compound concentrations were determined by interpolated from a standard curve prepared in plasma. All compounds were orally dosed at the dosage shown, and pharmacokinetic parameters determined
# NaPi2b = assay: Competition with phosphate: uptake assay repeated at 2.1 vs 0.1 mM phosphate; format: cell-based; conditions: potency for inhibition of NaPi2b at 2.1 vs 0.1 mM phosphate
# Source text: In certain preferred embodiments, the phosphate transport inhibitors of the present invention are not competitive inhibitors with respect to phosphate of Na/phosphate co-transport. In certain other preferred embodiments, the phosphate transport inhibitors of the invention are non-competitive inhibitors. Non-competitive inhibitors maintain their degree of inhibition irrespective of the local phosphate concentration. This feature is an important aspect in providing an efficient blockade of intestinal transport in postprandial state, where the local concentration of dietary phosphate can attain concentration as high as 10 mM. It is believed that competitive inhibitors are too sensitive to local phosphate concentration and unable to block phosphate uptake following a high phosphorus meal. Various methods are available for determining whether a phosphate transport inhibitor is non-competitive or competitive. For example, a phosphate uptake assay can be performed and the IC50 values for a compound at different phosphate concentrations can be determined (e.g., “Enzyme kinetics”, I. Segel, 1975, John-Wiley & Sons, p. 123). IC50 values for non-competitive inhibitors will remain the same or similar with respect to the phosphate concentration, whereas IC50 values for competitive inhibitors will increase (i.e. lose potency) as phosphate concentration increases.
# To ascertain if an inhibitor was competitive for binding with phosphate, the procedure was repeated, but raising the concentration of the substrate in the assay mixture from 0.1 to 2.1 mM phosphate.
# [2] = tested on: Uptake of Phosphate from the Intestine; assay: In vivo bolus phosphorus challenge; parameters: species or system Sprague-Dawley rats; conditions: rats on low-phosphorus diet, oral drug dose 30 (unit not given) 15 min before phosphate bolus, serum 30 min post bolus
# Protocol: By pretreating animals with a low phosphorus diet followed by the subsequent dosing of a phosphorus bolus, serum phosphorus levels were monitored after 30 minutes as a surrogate for intestinal phosphorus absorption. […] The in vivo bolus phosphorus challenge model used here mimics this model in rats.
# Male, 7-week-old Sprague-Dawley rats (Charles-River laboratories international, Hollister, Calif.) were allowed to acclimatize for a minimum of 3 days before switching to a synthetic low-phosphorus diet (TD.85010, Harlan Teklad, Madison, Wis.) which contains 0.1% phosphorus and 0.6% calcium. At day 5, testing compounds or vehicle alone (as indicated) were orally administered at the indicated dose in a volume of 5 ml/kg, followed by a bolus gavage of monobasic sodium phosphate (1 mmol in 1 ml) 15 min after compound dosing. Serum was collected via retroorbital bleeding 30 min post phosphate bolus and phosphate levels were determined utilizing an ACE ALERA blood chemistry analyzer (Alfa Wassermann Diagnostic Technologies, West Caldwell, N.J.).
# The extent of inhibition by test compounds on the elevation of serum phosphate levels in response to the bolus of phosphate is shown in Table 3 (data are expressed as % Inhibition, with 6-10 animals per data point). The differences between groups were evaluated by one-way analysis of variance with Dunnett's post hoc tests.
# [3] = tested on: Uptake of Phosphorus from the Intestine; assay: In vivo co-dosing in chow, urinary P output relative to P consumed; parameters: species or system Sprague-Dawley rats; conditions: rats, compound in chow, nominal 100 mg/kg/day (mean actual 104-105 mg/kg/day), mean of 24-96 h, vs control
# Source text: Male, 7-week-old Sprague-Dawley rats (Charles-River laboratories international, Hollister, Calif.) were allowed to acclimate for a minimum of 3 days. The experiment was initiated by switching animals to a synthetic diet (0.6% phosphorus and 0.6% calcium, Harlan Teklad TD.84122) for four days. After this time, the animals were placed into metabolic cages for daily monitoring of food and water consumption, as well as urine and fecal collections. Test compounds were incorporated into the powdered diet listed above containing 3% chocolate flavoring (w/w, BioSery #7345) at 1.3 mg test compound per gram of diet to achieve an average daily nominal dose of 100 mg/kg/day. The actual dose received by each animal was later determined by measuring prepared diet consumption and body weight. Urine samples were collected in three daily periods from 24-48, 48-72, and 72-96 hours of drug dosing. […] Phosphorous levels in the urine were determined by anion exchange chromatography using a Dionex ICS-3000 ion chromatography system. […] Elution of urine phosphate ions was monitored via conductivity detector and reported as ppm relative to a standard ion solution containing phosphate. Daily urinary P output relative to the P consumed in the prepared diet for each animal was calculated. […] The differences between the means of control and treated groups were evaluated by t tests. […]
Compound,AUC [1] [ng·h/mL],Competitive with respect to Pi? (NaPi2b),% Inhibition of Serum P elevation [2] [%],Cmax [1] [ng/mL],Mean % inhibition Urine Pout/P consumed [3] [%]
"O=C(O)CCOCCOCCOCCNC(=O)Cc1cccc(SCc2cccc(C(=O)Nc3ccc(N4CCCCC4)cc3C(=O)Nc3ccn(-c4cccc(C(F)(F)F)c4)n3)c2)c1 [Example 26, 2-Oxo-1-(3-((3-((4-(piperidin-1-yl)-2-((1-(3-(trifluoromethyl)phenyl)-1H-pyrazol-3-yl)carbamoyl)phenyl)carbamoyl)benzyl)thio)phenyl)-6,9,12-trioxa-3-azapentadecan-15-oic acid]",< 3,No,–,–,–
"CN(CCN1CCOCC1)C(=O)c1cccc(C(=O)Nc2ccc(N3CCCCC3)cc2C(=O)Nc2ccn(-c3cccc(C(F)(F)F)c3)n2)c1 [Example 11, N1-Methyl-N1-(2-morpholinoethyl)-N3-(4-(piperidin-1-yl)-2-((1-(3-(trifluoromethyl)phenyl)-1H-pyrazol-3-yl)carbamoyl)phenyl)isophthalamide]",–,No,30.0,–,–
"CN(CCN1CCOCC1)C(=O)c1cccc(C(=O)Nc2ccc(Cl)cc2C(=O)Nc2ccn(-c3cccc(C(F)(F)F)c3)n2)c1 [Example 14, N1-(4-Chloro-2-((1-(3-(trifluoromethyl)phenyl)-1H-pyrazol-3-yl)carbamoyl)phenyl)-N3-methyl-N3-(2-morpholinoethyl)isophthalamide 2,2,2-trifluoroacetate]",788,–,–,487,12
